Values quoted from earlier work, collected in US8445706B2, “Unnatural amino acids capable of covalently modifying protein phosphatases and their use as general and specific inhibitors and probes” (Board of Trustees of Northern Illinois University, priority 2008, dated 2013).

Settings: neutral or basic aqueous solutions; cited from earlier work

Which solvolysis does the source give for `O=P(O)(O)C(Br)c1ccccc1` (stereo not drawn) [α-bromobenzylphosphonate] here?
The solvolysis was “undergoes solvolysis”.
